This note sets out measurements from patent publication US11746087B1, “C4-carboxylic acid-substituted tryptamine derivatives and methods of using” (priority 2022, dated 2023).

Data set [1] has as its target T1, 5-HT1A receptor (Homo sapiens, UniProt P08908).
T1 construct: host or cells: CHO-K1 (co-expressing Ga15)
T1 sequence (P08908 1-422): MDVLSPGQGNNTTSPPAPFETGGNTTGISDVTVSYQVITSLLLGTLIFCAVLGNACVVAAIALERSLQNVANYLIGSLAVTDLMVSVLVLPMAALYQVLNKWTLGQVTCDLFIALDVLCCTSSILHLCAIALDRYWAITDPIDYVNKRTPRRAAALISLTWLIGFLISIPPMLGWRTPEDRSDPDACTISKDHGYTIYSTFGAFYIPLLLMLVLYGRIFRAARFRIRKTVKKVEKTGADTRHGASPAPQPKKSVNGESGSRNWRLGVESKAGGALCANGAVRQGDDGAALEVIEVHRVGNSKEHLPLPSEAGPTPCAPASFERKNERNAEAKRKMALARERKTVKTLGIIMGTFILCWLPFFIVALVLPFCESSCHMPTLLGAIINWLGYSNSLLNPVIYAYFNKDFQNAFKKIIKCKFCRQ
Kind of data set: cAMP-Glo assay in +5-HT1A vs −5-HT1A CHO-K1 cells. As to conditions: for 5-HT1A receptor modulation, +5-HT1A vs −5-HT1A cultures: cAMP assay with 4 mM forskolin; for cAMP levels in +5-HT1A cells with increasing ligand: cells stimulated with 4 mM forskolin, compared with −5-HT1A cells. Format: cell-based.

The nature of data set [2]: Stability / psilocin release in enzyme-free control buffer. Format: in vitro ADME. As to conditions: enzyme-free control buffer pH 7.4, 37° C., 2 hours. The source says: (§1) A fundamental evaluation in drug development is the assessment of absorption, distribution, metabolism, excretion, and pharmacokinetics (ADME/PK) (Eddershaw et al., 2000, Drug Discovery Today 5(9): 409-414). […] Drug stability upon exposure to human liver microsomes and liver S9 cellular fractions is a common in vitro assay to approximate in vivo, liver-based drug metabolism (Richardson et al., 2016 Drug Metabolism Letters 10:83-90). First-pass metabolism is also often approximated in vitro using intestinal microsome and cellular S9 fractions (Hatley et al., 2017, Biopharmaceuticals & Drug Disposition, 38(2):155-160). […] Supernatants were analyzed for the presence of candidate prodrugs (parent molecule) and psilocin (the predicted metabolite) using Orbitrap LC-MS (Thermo Scientific) using previously described methods (Menéndez-Perdomo et al., 2021, J Mass Spectrom, 56: e4683). […] Assay concentrations (μM) of both parent ‘prodrug’ molecule and psilocin metabolite, as quantified through LC-MS using routine standard curve procedures, were plotted as functions of assay time (minutes). The metabolism rate (T1/2) was determined from the metabolism curve plot using the one phase decay feature of GraphPad PRISM software (Version 9.2.0). The quantity of parent prodrug at time zero was set as 100%. […]

Data set [3] can be described thus: Metabolic stability / psilocin release in human liver microsomes. Format: in vitro ADME. Conditions: 400 μg/ml HLM, NADPH, 37° C.
Text: as §1
A general note: Liver microsomes are a subcellular fraction often used to study metabolism.

Data set [4] can be described thus: Metabolic stability / psilocin release in human liver S9. As to conditions: 400 μg/ml HLS9, NADPH, 37° C. Format: in vitro ADME.
Text: as §1

A short description of data set [5]: Mouse PK study (IV and PO), plasma parent compound and psilocin by LC-MS/MS. Format: in vivo. As to conditions: mouse; for Plasma concentration of psilocybin: psilocybin 1 mg/kg i.v. The source says: Briefly, the procedure was as follows. […] 19, 2022.
The target of data set [6] is T2, 5-HT2A receptor (Mus musculus, UniProt P35363).
T2 construct: 8-week old C57BL/6-Elite male and female mice were obtained from Charles River; tissue Charles River; host or cells: living C57BL/6-Elite mice (neuronal receptor, in vivo)
The data set can be described thus: Drug-induced Head Twitch Response (HTR). Format: in vivo. Conditions: C57BL/6 mice; 1 mg/kg i.p.; 15-to-30-minute window after administration.

Data set [7] addresses 5-HT2A receptor (Homo sapiens, UniProt P28223). The data set can be described thus: [3H]ketanserin competition binding assay (SPA). As to conditions: 1 nM [3H]ketanserin; control ligands, FIG. 3E, 3F.

5-HT2A receptor (Homo sapiens, UniProt P28223), sequence (P28223 whole entry): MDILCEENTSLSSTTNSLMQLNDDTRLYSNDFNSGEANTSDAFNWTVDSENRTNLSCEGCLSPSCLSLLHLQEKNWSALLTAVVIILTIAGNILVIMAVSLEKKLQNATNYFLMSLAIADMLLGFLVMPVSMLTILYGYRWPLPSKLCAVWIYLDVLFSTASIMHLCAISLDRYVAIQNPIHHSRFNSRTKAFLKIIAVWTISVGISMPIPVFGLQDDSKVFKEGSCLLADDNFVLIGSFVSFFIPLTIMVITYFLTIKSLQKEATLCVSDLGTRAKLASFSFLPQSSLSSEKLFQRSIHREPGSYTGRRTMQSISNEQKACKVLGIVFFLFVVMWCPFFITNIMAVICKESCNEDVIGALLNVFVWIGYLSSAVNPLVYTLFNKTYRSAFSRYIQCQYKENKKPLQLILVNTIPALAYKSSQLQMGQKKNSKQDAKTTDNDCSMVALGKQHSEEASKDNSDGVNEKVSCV
T2 sequence (P35363 whole entry): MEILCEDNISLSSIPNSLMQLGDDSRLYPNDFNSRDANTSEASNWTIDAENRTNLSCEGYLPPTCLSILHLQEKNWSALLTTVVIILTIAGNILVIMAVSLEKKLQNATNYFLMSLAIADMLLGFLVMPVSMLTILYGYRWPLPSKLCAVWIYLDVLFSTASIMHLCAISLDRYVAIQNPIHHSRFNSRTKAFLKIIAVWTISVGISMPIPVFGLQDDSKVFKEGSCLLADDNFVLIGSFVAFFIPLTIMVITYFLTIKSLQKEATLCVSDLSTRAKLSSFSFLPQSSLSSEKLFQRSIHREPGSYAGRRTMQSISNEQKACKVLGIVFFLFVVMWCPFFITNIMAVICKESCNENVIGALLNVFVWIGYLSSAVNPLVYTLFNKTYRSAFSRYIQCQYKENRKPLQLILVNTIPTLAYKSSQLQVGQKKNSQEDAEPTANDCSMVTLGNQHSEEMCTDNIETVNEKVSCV

`COC(=O)c1cccc(C(=O)Oc2cccc3[nH]cc(CCN(C)C)c23)c1` [C(XLIII)]: the “5-HT1A receptor modulation, +5-HT1A vs −5-HT1A cultures” value in data set [1] is “receptor modulation at higher ligand concentrations”.

`CN(C)CCc1c[nH]c2cccc(OP(=O)(O)O)c12` [psilocybin, reference compound]: the “stability in assay buffer” value in data set [2] is on record as “stability of psilocybin was confirmed”. Moreover, the “stability / conversion to psilocin in liver fractions (HLM)” value in data set [3] is “stable in liver fractions with no conversion to psilocin”. For the same molecule, the “stability / conversion to psilocin in liver fractions (HLS9)” value in data set [4] is recorded as “stable in liver fractions with no conversion to psilocin”. Further, the “detectability of parent compound in plasma, i.v. dosing” value in data set [5] (1 mg/kg i.v.) is reported as “only detectable in i.v. administered animals”. Moreover, in data set [5] (oral, any dose (1, 3, 10 mg/kg)), the “detectability of parent compound in plasma, oral dosing” value is reported as “not detectable”. The “Plasma concentration of psilocybin” value in data set [5] (2 h), in data set [5] (4 h) and in data set [5] (6 h) was “No Peak” each time. In data set [5] (psilocybin 1.56 mg/kg oral (nominal 1 mg/kg), 24 h), the “Plasma concentration of psilocin” value is listed as “BLQ”.

As for `COCCOCCOCC(=O)Oc1cccc2[nH]cc(CCN(C)C)c12` [C(III)], in data set [1], the “5-HT1A receptor modulation, +5-HT1A vs −5-HT1A cultures” value is recorded as “significant receptor modulation”. Moreover, in data set [6], the “Head Twitch Response (HTR) incidence relative to vehicle” value is listed as “Elevated incidences of HTR”.

Take `NCCc1c[nH]c2ccc(O)cc12` [serotonin, reference compound]: the “cAMP levels in +5-HT1A cells with increasing ligand” value in data set [1] is listed as “reduction in cAMP levels”.

Regarding `N[C@@H](Cc1c[nH]c2ccccc12)C(=O)O` [tryptophan, reference compound], in data set [1], the “cAMP levels in +5-HT1A cells with increasing ligand” value is listed as “no reduction in cellular cAMP levels”. The “competition binding vs [3H]ketanserin at 5-HT2A receptor” value in data set [7] is given as “no binding”.

On to `CN(C)CCc1c[nH]c2cccc(OC(=O)c3cccc(C(=O)Oc4cccc5[nH]cc(CCN(C)C)c45)c3)c12` [C(VII)], for which, in data set [1], the “5-HT1A receptor modulation, +5-HT1A vs −5-HT1A cultures” value was “no significant receptor modulation”. For the same molecule, the “Head Twitch Response (HTR) incidence relative to vehicle” value in data set [6] is “Elevated incidences of HTR”.

Regarding `CN(C)CCc1c[nH]c2cccc(O)c12` [psilocin, reference compound], in data set [1], the “cAMP levels in +5-HT1A cells with increasing ligand” value is “reduction in cAMP levels”. Further, the “competition binding vs [3H]ketanserin at 5-HT2A receptor” value in data set [7] is given as “binding”.
